What was measured:
[1] = tested on: primary human CD4 T cells; test: Viability of primary CD4 T cells in the screening; assay type: cell-based; conditions: at the concentration tested
Method: It was observed that the ability of different benzotriazole and benzotriazin derivatives to increase STAT5 phosphorylation correlated with the ability of the compounds to induce the expression of CD69 (a STAT5 target gene) (FIG. 2A) but not CD25 (FIG. 2B) in the surface of human CD4 T cells. Based on these findings, a primary cell screening assay was set up according to FIG. 2C to identify derivatives with similar activity. As an example, flow cytometry was performed to isolated activated cells (FIG. 2D), which were expanded in the presence of DMSO or a compound of interest (FIG. 2E), and screened for changes in the expression of CD69 (FIG. 2F).

NK cells = conditions: single agent, 48 hours
Method: To determine if STAT SUMOylation increases Gzm B expression in NK cells, isolated human NK cells were analyzed after a 3-day incubation with either IL-2, IL-15, HODHBt, IL-2+IL-15, HODHBt+IL-2, HODHBt+IL-15, or HODHBt+IL-2+IL-15.
To further characterize the effects of STAT SUMOylation inhibition in NK cell function, primary human NK cells were isolated and cultured with IL-15 in the presence or absence of HODHBt. 48 hours later, cells were phenotyped by flow cytometry.
To characterize the induction of other proteins known to be important for the cytolytic activity of NK cells, primary human NK cells were isolated from 6 male and 6 female donors and cultured with IL-15 in the presence or absence of HODHBt. 48 hours later, levels of Granzyme A (FIG. 18A), Perforin (FIG. 18B), Granulysin (FIG. 18C), TRAIL (FIG. 18D) and Fas ligand (FASL) (FIG. 18E) were analyzed by flow cytometry.
Antibody-dependent cell-mediated cytotoxicity (ADCC) is mediated by the recognition of an antibody bound to a cell through an Fc receptor present in NK cells, mostly CD16 (FCGR3A). To address whether inhibiting STAT SUMOylation alters CD16 expression in the surface of NK cells, freshly isolated NK cells were treated with either IL-15, HODHBt or a combination of both for 48 hours and surface expression of CD16 was measured by flow cytometry.
Since IL-15 activated STATs, it was hypothesized that STATs, and in particular STAT1, was controlling expression of CXCR5 (C—X—C Motif Chemokine Receptor 5) and that inhibiting STAT SUMOylation enhances CXCR5 expression and promotes migration towards a CXCL13 (C—X—C Motif Chemokine Ligand 13) gradient. CXCL13 controls homing of lymphocytes to follicles in lymph nodes; however whether this mechanism of regulation exists in human NK cells and whether IL-15 controls expression were unknown. To address which one of the two scenarios was potentially playing a role in the presence of NK cells within the follicles, human NK cells were treated with IL-15, HODHBt or a combination of both for 48 hours. Surface expression of CXCR5 and viability were next measured by flow cytometry.
To phenotype the cells, 1×10^5 cells were stained with a viability dye (Fixable Viability Dye eFluor 450, Affymetrix, eBioscience, San Diego, CA) and the surface marker-specific mAb specific for human: PE-anti-CD25 (Caltag, Burlingame, CA) and PE-anti-CD69 (Caltag, Burlingame, CA) followed by flow cytometric analysis in a BD FACScanto II flow cytometer using the FACSDiva software (Becton Dickinson, Mountain View, CA) and analyzed using FlowJo (Tree Star Inc., Ashland, OR).

K562 = test: NK cell killing of K562 cells, E:T 1:1, 4 hours; assay type: cell-based, human; conditions: NK cells pretreated with single agent, E:T 1:1, 4 hours
Method: It was therefore hypothesized that inhibiting STAT SUMOylation may enhance the ability of IL-15 stimulated NK cells to clear the HIV latent reservoir. To test the hypothesis, NK cells were treated with DMSO, IL-15-stimulated, treated with HODHBt or IL-15-stimulated and treated with HODHBt. Cells were then tested in their ability to kill the erythroleukemia cell line K562, which lack MHC-I. In an experiment, the NK cells from two donors were co-cultured with K562 at an E:T ratio of 1:1 for 4 hours (FIG. 19A). NK cells were pretreated with IL-15, HODHBt, or a combination of both.

Molecule | toxicity / viability of primary CD4 T cells [1] | surface expression of CD69 on NK cells (NK cells) | surface expression of CXCR5 on NK cells (NK cells) | expression of Granzyme A, Perforin, Granulysin, TRAIL and FASL in NK cells (NK cells; 6 male and 6 female donors) | expression of GZMB in NK cells (NK cells; vs media control) | killing of K562 by pretreated NK cells (K562)
CC(C)(C)OC(=O)NCc1ccc(C(=O)On2nnc3ccccc3c2=O)cc1 [BIN024] | high levels of toxicity |  |  |  |  | 
IL-15: interleukin-15 (IL-15), cytokine |  | induced the surface expression of CD69 | induced surface expression of CXCR5 | induced the expression of all these genes | increased the expression of GZMB | induced increase killing of K562 over a 4-hour period
